From ChEMBL document CHEMBL5712909, “WDR5 inhibition halts metastasis dissemination by repressing the mesenchymal phenotype of breast cancer cells” (2019)
Calls of active or inactive are those of the source. The rule behind the calls is not given here.

Tests used:
MDA-MB-231 [1] = experiment: Inhibition of cell migration in human MDA-MB-231 cells assessed as reduction in cell migration at 10 microM for 3 days by crystal violet staining based transwell assay; assay type: functional; conditions: time 3.0 day
MCF10DCIS [2] = experiment: Inhibition of cell migration in human MCF10DCIS cells assessed as reduction in cell migration at 10 microM for 3 days by crystal violet staining based transwell assay; assay type: functional; conditions: time 3.0 day
MDA-MB-231 [3] = experiment: Induction of cell cycle arrest in human MDA-MB-231 cells assessed as accumulation of cells in not cycling S phase at 20 microM for 3 days by BrDU and PI staining based flow cytometric analysis (reference value: 2.5%); assay type: functional
MDA-MB-231 [4] = experiment: Induction of cell cycle arrest in human MDA-MB-231 cells assessed as accumulation of cells in S phase at 20 microM for 3 days by BrDU and PI staining based flow cytometric analysis (reference value: 45.7%); assay type: functional
MDA-MB-231 [5] = experiment: Induction of cell cycle arrest in human MDA-MB-231 cells assessed as accumulation of cells in G0/G1 phase at 10 uM for 3 days by BrDU and PI staining based flow cytometric analysis (reference value: 30.5%); assay type: functional
MDA-MB-231 [6] = experiment: Induction of cell cycle arrest in human MDA-MB-231 cells assessed as accumulation of cells in not cycling S phase at 10 uM for 3 days by BrDU and PI staining based flow cytometric analysis (reference value: 2.5%); assay type: functional; conditions: time 3 day
MDA-MB-231 [7] = experiment: Induction of cell cycle arrest in human MDA-MB-231 cells assessed as accumulation of cells in G2/M phase at 10 uM for 3 days by BrDU and PI staining based flow cytometric analysis (reference value: 19.3%); assay type: functional
MDA-MB-231 [8] = experiment: Induction of cell cycle arrest in human MDA-MB-231 cells assessed as accumulation of cells in S phase at 10 uM for 3 days by BrDU and PI staining based flow cytometric analysis (reference value: 45.7%); assay type: functional; conditions: time 3 day
MDA-MB-231 [9] = experiment: Induction of cell cycle arrest in human MDA-MB-231 cells assessed as accumulation of cells in not cycling S phase at 10 nM for 3 days by BrDU and PI staining based flow cytometric analysis (reference value: 2.5%); assay type: functional
MDA-MB-231 [10] = experiment: Induction of cell cycle arrest in human MDA-MB-231 cells assessed as accumulation of cells in S phase at 10 nM for 3 days by BrDU and PI staining based flow cytometric analysis (reference value: 45.7%); assay type: functional
MBC2 [11] = experiment: Antiproliferative activity against human MBC2 cells assessed as reduction in cell viability at 10 uM for 3 days by cell titre glo assay; assay type: functional, cell-based; conditions: time 3.0 day
MBC26 [12] = experiment: Antiproliferative activity against human MBC26 cells assessed as reduction in cell viability at 10 uM for 3 days by cell titre glo assay; assay type: functional, cell-based; conditions: time 3.0 day
MBC2 [13] = experiment: Cytotoxicity against human MBC2 cells assessed as cell viability at 1 to 10 nM for 3 days in presence of OCIR-9429; assay type: functional, cell-based; conditions: dose 1-10 nM, time 3.0 day
MBC2 [14] = experiment: Cytotoxicity against human MBC2 cells assessed as cell viability at 1 to 10 nM for 3 days in presence of galunisertib; assay type: functional, cell-based; conditions: dose 1-10 nM, time 3.0 day
MDA-MB-231 [15] = experiment: Cytotoxicity against human MDA-MB-231 cells assessed as cell viability at 10 nM for 3 days in presence of OCIR-9429 relative to control; assay type: functional; conditions: MDA-MB-231, 72 h, time 3 day, read-out: Activity
MDA-MB-231 [16] = experiment: Cytotoxicity against human MDA-MB-231 cells assessed as cell viability at 10 nM for 3 days in presence of galunisertib relative to control; assay type: functional; conditions: MDA-MB-231, 72 h, time 3 day, read-out: Activity
MDA-MB-231 [17] = experiment: Induction of cell cycle arrest in human MDA-MB-231 cells assessed as accumulation of cells in G0/G1 phase at 10 nM for 3 days by BrDU and PI staining based flow cytometric analysis (reference value: 30.5%); assay type: functional
MDA-MB-231 [18] = experiment: Induction of cell cycle arrest in human MDA-MB-231 cells assessed as accumulation of cells in G2/M phase at 10 nM for 3 days by BrDU and PI staining based flow cytometric analysis (reference value: 19.3%); assay type: functional
MBC26 [19] = experiment: Cytotoxicity against human MBC26 cells assessed as cell viability for 3 days at 1 to 10 nM in presence of OCIR-9429; assay type: functional, cell-based; conditions: dose 1-10 nM, time 3.0 day
MBC26 [20] = experiment: Cytotoxicity against human MBC26 cells assessed as cell viability for 3 days at 1 to 10 nM in presence of -Gaulnisertib; assay type: functional, cell-based; conditions: dose 1-10 nM, time 3.0 day
MDA-MB-231 [21] = experiment: Induction of cell cycle arrest in human MDA-MB-231 cells assessed as cleaved PARP at 10 nM for 3 days in presence of OICR-9429 by Western blot analysis; assay type: functional, cell-based; conditions: time 3.0 day
MDA-MB-231 [22] = experiment: Induction of cell cycle arrest in human MDA-MB-231 cells assessed as cleaved PARP at 10 nM for 3 days in presence of galunisertib by Western blot analysis; assay type: functional, cell-based; conditions: time 3.0 day
MDA-MB-231 [23] = experiment: Induction of cell cycle arrest in human MDA-MB-231 cells assessed as DNA damage by measuring gamma H2AX phosphorylation at 10 nM for 3 days in presence of OICR-9429 by Western blot analysis; assay type: functional, cell-based; conditions: time 3.0 day
MDA-MB-231 [24] = experiment: Induction of cell cycle arrest in human MDA-MB-231 cells assessed as DNA damage by measuring gamma H2AX phosphorylation at 10 nM for 3 days in presence of galunisertib by Western blot analysis; assay type: functional, cell-based; conditions: time 3.0 day
MDA-MB-231 [25] = experiment: Induction of cell cycle arrest in human MDA-MB-231 cells assessed as accumulation of cells in G0/G1 phase at 10 nM for 3 days in presence of OCIR-9429 by BrDU and PI staining based flow cytometric analysis (reference value: 30.5%); assay type: functional; conditions: time 3 day
MDA-MB-231 [26] = experiment: Induction of cell cycle arrest in human MDA-MB-231 cells assessed as accumulation of cells in not cycling S phase at 10 nM for 3 days in presence of OCIR-9429 by BrDU and PI staining based flow cytometric analysis (reference value: 2.5%); assay type: functional; conditions: time 3 day
MDA-MB-231 [27] = experiment: Induction of cell cycle arrest in human MDA-MB-231 cells assessed as accumulation of cells in G2/M phase at 10 nM for 3 days in presence of OCIR-9429 by BrDU and PI staining based flow cytometric analysis (reference value: 19.3%); assay type: functional; conditions: time 3 day
MDA-MB-231 [28] = experiment: Induction of cell cycle arrest in human MDA-MB-231 cells assessed as accumulation of cells in S phase at 10 nM for 3 days in presence of OCIR-9429 by BrDU and PI staining based flow cytometric analysis (reference value: 45.7%); assay type: functional; conditions: time 3 day
MDA-MB-231 [29] = experiment: Induction of cell cycle arrest in human MDA-MB-231 cells assessed as accumulation of cells in G0/G1 phase at 10 nM for 3 days in presence of galunisertib by BrDU and PI staining based flow cytometric analysis (reference value: 30.5%); assay type: functional; conditions: time 3 day
MDA-MB-231 [30] = experiment: Induction of cell cycle arrest in human MDA-MB-231 cells assessed as accumulation of cells in not cycling S phase at 10 nM for 3 days in presence of galunisertib by BrDU and PI staining based flow cytometric analysis (reference value: 2.5%); assay type: functional; conditions: time 3 day
MDA-MB-231 [31] = experiment: Induction of cell cycle arrest in human MDA-MB-231 cells assessed as accumulation of cells in G2/M phase at 10 nM for 3 days in presence of galunisertib by BrDU and PI staining based flow cytometric analysis (reference value: 19.3%); assay type: functional; conditions: time 3 day
MDA-MB-231 [32] = experiment: Induction of cell cycle arrest in human MDA-MB-231 cells assessed as accumulation of cells in S phase at 10 nM for 3 days in presence of galunisertib by BrDU and PI staining based flow cytometric analysis (reference value: 45.7%); assay type: functional; conditions: time 3 day
MDA-MB-231 [33] = experiment: Inhibition of cell migration in human MDA-MB-231 cells assessed as reduction in cell migration incubated for 3 days by crystal violet staining based transwell assay; assay type: functional; conditions: dose 1-20 µM, time 3.0 day
MCF-10A = experiment: Inhibition of cell migration in human MCF-10A cells assessed as reduction in cell migration incubated for 3 days by crystal violet staining based transwell assay; assay type: functional; conditions: dose 1-20 µM, time 3.0 day
MBC2 [34] = experiment: Inhibition of cell migration in human MBC2 cells assessed as reduction in cell migration at 20 microM for 3 days by crystal violet staining based transwell assay; assay type: functional; conditions: time 3.0 day
MBC26 [35] = experiment: Inhibition of cell migration in human MBC26 cells assessed as reduction in cell migration at 20 microM for 3 days by crystal violet staining based transwell assay; assay type: functional; conditions: time 3.0 day
MDA-MB-231 [36] = experiment: Induction of cell cycle arrest in human MDA-MB-231 cells assessed as accumulation of cells in G0/G1 phase at 20 microM for 3 days by BrDU and PI staining based flow cytometric analysis (reference value: 30.5%); assay type: functional; conditions: time 3 day
MDA-MB-231 [37] = experiment: Induction of cell cycle arrest in human MDA-MB-231 cells assessed as accumulation of cells in G2/M phase at 20 microM for 3 days by BrDU and PI staining based flow cytometric analysis (reference value: 19.3%); assay type: functional; conditions: time 3 day
MCF10DCIS [38] = experiment: Inhibition of cell migration in human MCF10DCIS cells assessed as reduction in cell migration incubated for 3 days by crystal violet staining based transwell assay; assay type: functional; conditions: dose 1-20 µM, time 3.0 day
MBC2 [39] = experiment: Antiproliferative activity against human MBC2 cells assessed as reduction in cell viability at 20 uM for 3 days by cell titre glo assay; assay type: functional, cell-based; conditions: time 3.0 day
MBC26 [40] = experiment: Antiproliferative activity against human MBC26 cells assessed as reduction in cell viability at 20 uM for 3 days by cell titre glo assay; assay type: functional, cell-based; conditions: time 3.0 day

With `Cc1cccc(-c2nn3c(c2-c2ccnc4ccc(C(N)=O)cc24)CCC3)n1` [GALUNISERTIB] the inhibition (MDA-MB-231 [1]) was “Active”, the inhibition (MCF10DCIS [2]) was “Active” and the Activity (MDA-MB-231 [3]; time 3.0 day) was “inactive”. For the same compound, the Activity (MDA-MB-231 [4]; time 3.0 day) was “inactive”, the Activity (MDA-MB-231 [5]; time 3 day) was 30.4% and the Activity (MDA-MB-231 [6]) was 1.5%. For the same compound, the Activity (MDA-MB-231 [7]; time 3 day) was 18.5%, the Activity (MDA-MB-231 [8]) was 48.8% and the Activity (MDA-MB-231 [9]; time 3.0 day) was “Active”. For the same compound, the Activity (MDA-MB-231 [10]; time 3.0 day) was “Active”, the Activity (MBC2 [11]) was “inactive” and the Activity (MBC26 [12]) was “inactive”.

For `CC(=O)O[C@H]1C(=O)[C@@]2(C)[C@H]([C@H](OC(=O)c3ccccc3)[C@]3(O)C[C@H](OC(=O)[C@H](O)[C@@H](NC(=O)c4ccccc4)c4ccccc4)C(C)=C1C3(C)C)[C@]1(OC(C)=O)CO[C@@H]1C[C@@H]2O` [PACLITAXEL], the Activity (MBC2 [13]) was “Active”, the Activity (MBC2 [14]) was “Active” and the viability at 0.01 µM (MDA-MB-231 [15]) was 10%. It also gave a viability at 0.01 µM (MDA-MB-231 [16]) of 10%, an Activity (MDA-MB-231 [17]; time 3 day) of 19.2% and an Activity (MDA-MB-231 [9]; time 3 day) of 9.2%. The Activity (MDA-MB-231 [18]; time 3 day) was 31.7%, the Activity (MDA-MB-231 [10]; time 3 day) was 38.6% and the Activity (MBC26 [19]) was “Active”. The Activity (MBC26 [20]) was “Active”, the Activity (MDA-MB-231 [21]) was “Active” and the Activity (MDA-MB-231 [22]) was “Active”. For the same compound, the Activity (MDA-MB-231 [23]) was “Active”, the Activity (MDA-MB-231 [24]) was “Active” and the Activity (MDA-MB-231 [25]) was 22.4%. For the same compound, the Activity (MDA-MB-231 [26]) was 11.9%, the Activity (MDA-MB-231 [27]) was 37.5% and the Activity (MDA-MB-231 [28]) was 26.7%. The Activity (MDA-MB-231 [29]) was 16.7%, the Activity (MDA-MB-231 [30]) was 8% and the Activity (MDA-MB-231 [31]) was 40.1%. The Activity (MDA-MB-231 [32]) was 34%.

For `CN1CCN(c2ccc(-c3cccc(CN4CCOCC4)c3)cc2NC(=O)c2c[nH]c(=O)cc2C(F)(F)F)CC1`, the inhibition (MDA-MB-231 [33]) was “Dose-Dependent Effect”, the inhibition (MCF-10A) was “inactive” and the inhibition (MBC2 [34]) was “Active”. The inhibition (MBC26 [35]) was “Active”, the Activity (MDA-MB-231 [36]) was 32.3% and the Activity (MDA-MB-231 [3]; time 3 day) was 2.2%. The Activity (MDA-MB-231 [37]) was 19.1%, the Activity (MDA-MB-231 [4]; time 3 day) was 46% and the Activity (MDA-MB-231 [5]; time 3.0 day) was “inactive”. For the same compound, the Activity (MDA-MB-231 [7]; time 3.0 day) was “Active”, the Activity (MDA-MB-231 [17]; time 3.0 day) was “Active” and the Activity (MDA-MB-231 [18]; time 3.0 day) was “Active”. For the same compound, the inhibition (MCF10DCIS [38]) was “Dose-Dependent Effect”, the Activity (MBC2 [39]) was “inactive” and the Activity (MBC26 [40]) was “inactive”.
